Where two headings read alike, the source gives them in different places.

The assay has as its target T1, androgen receptor (AR) (Homo sapiens, UniProt P10275).
T1 sequence (P10275 1-920): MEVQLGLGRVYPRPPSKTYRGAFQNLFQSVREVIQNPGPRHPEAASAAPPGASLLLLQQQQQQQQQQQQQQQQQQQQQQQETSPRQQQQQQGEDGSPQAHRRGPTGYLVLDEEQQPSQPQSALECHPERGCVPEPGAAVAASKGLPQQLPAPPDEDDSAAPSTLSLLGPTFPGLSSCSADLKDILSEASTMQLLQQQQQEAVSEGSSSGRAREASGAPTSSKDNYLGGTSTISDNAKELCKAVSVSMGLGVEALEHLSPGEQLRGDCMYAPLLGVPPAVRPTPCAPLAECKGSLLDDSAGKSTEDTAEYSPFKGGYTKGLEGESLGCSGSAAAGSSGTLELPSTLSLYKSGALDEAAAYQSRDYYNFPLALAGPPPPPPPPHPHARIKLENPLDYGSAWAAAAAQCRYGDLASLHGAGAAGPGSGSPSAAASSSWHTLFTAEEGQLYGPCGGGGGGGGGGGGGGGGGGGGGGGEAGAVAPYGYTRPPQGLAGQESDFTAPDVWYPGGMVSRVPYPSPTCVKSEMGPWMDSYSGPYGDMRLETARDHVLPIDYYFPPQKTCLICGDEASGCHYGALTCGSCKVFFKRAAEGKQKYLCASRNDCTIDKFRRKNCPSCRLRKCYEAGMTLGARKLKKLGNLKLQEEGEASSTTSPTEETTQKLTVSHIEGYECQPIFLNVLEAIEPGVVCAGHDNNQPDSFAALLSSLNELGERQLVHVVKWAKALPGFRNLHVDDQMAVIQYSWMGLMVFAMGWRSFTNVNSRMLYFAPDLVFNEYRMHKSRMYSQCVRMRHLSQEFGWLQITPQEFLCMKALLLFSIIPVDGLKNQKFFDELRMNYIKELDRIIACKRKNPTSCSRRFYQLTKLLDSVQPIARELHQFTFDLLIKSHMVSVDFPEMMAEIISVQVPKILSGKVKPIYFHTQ
The assay can be described thus: Degradation of androgen receptor (AR) protein in VCaP cells by ELISA. Type of assay: cell-based. Particulars: for DC50: read-out: DC50; for Dmax: VCaP; for inhibition at 0.1 µM: percentage of degraded AR at 100 nM, read-out: % degradation.

The mark [1] stands for this setting: AR degradation, VCaP cells, 16 h, ELISA, Table 3-1.
Setting [2] is: AR degradation, VCaP cells, 16 h, ELISA, Table 3-1, read-out: Dmax (%).

As for “4-((1r,3r)-3-(2-((1r,4r)-4-(4-(2,6-dioxopiperidin-3-yl)-1,3-dioxoisoindolin-5-yl)piperazin-1-2-methoxybenzonitrile [Compound 400]”, the “Dmax (%)” value is reported as “++++ (key: A: >80%; B: 79%-50%; C: 49%-25%; D: <25%)” and the half-maximal degradation concentration (DC50) is less than 10 nM. `CC1(C)[C@H](Oc2ccc(C#N)c(Cl)c2)C(C)(C)[C@H]1N1Cc2nc(C#CC3CCC(N4CC5CC4CN5c4ccc5c(c4)C(=O)N(C4CCC(=O)NC4=O)C5=O)CC3)ccc2C1=O` (single isomer, unassigned) [Compound 352, 2-Chloro-4-((1r,3r)-3-(2-((4-(5-(2-(2,6-dioxopiperidin-3-yl)-1,3-dioxoisoindolin-5-yl)-2,5-diazabicyclo[2.2.1]heptan-2-yl)cyclohexyl)ethynyl)-5-oxo-5,7-dihydro-6H-pyrrolo[3,4-b]pyridin-6-yl)-2,2,4,4-tetramethylcyclobutoxy) benzonitrile]: the DC50 under setting [1] is more than 300 nM. The Dmax under setting [2] fell in the range of 40 to 60%. As for `CC1(C)[C@H](Oc2ccc(C#N)c(Cl)c2)C(C)(C)[C@H]1N1Cc2nc(C#CC3CCC(N4CC5CC4CN5c4ccc5c(c4)C(=O)N(C4CCC(=O)NC4=O)C5=O)CC3)ccc2C1=O` (single isomer, unassigned) [Compound 353, 2-Chloro-4-((1r,3r)-3-(2-((4-(5-(2-(2,6-dioxopiperidin-3-yl)-1,3-dioxoisoindolin-5-yl)-2,5-diazabicyclo[2.2.1]heptan-2-yl)cyclohexyl)ethynyl)-5-oxo-5,7-dihydro-6H-pyrrolo[3,4-b]pyridin-6-yl)-2,2,4,4-tetramethylcyclobutoxy) benzonitrile], the DC50 under setting [1] is more than 300 nM.

As for `CC(=O)O[C@@H]1CC(C(=O)N[C@@H](C)c2ccc(-c3scnc3C)cc2)N(C(=O)[C@@H](NC(=O)COCCN2CCN(c3ccc4c(c3)CN([C@H]3C(C)(C)[C@H](Oc5ccc(C#N)c(Cl)c5)C3(C)C)C4=O)CC2)C(C)(C)C)C1` (stereo partly drawn) [Compound 2, (3R,5S)-1-((S)-2-(2-(2-(4-(2-((1R,3R)-3-(3-chloro-4-cyanophenoxy)-2,2,4,4-tetramethylcyclobutyl)-1-oxoisoindolin-5-yl)piperazin-1-yl)ethoxy)acetylamino)-3,3-dimethylbutyryl)-5-(((S)-1-(4-(4-methylthiazol-5-yl)phenyl)ethyl)carbamoyl) pyrrolidin-3-yl acetate], for the setting “VCaP cells, 16 h, ELISA”, the inhibition at 0.1 µM was less than 25%. Regarding `CC(=O)O[C@@H]1C[C@H](C(=O)NC2(c3ccc(-c4scnc4C)cc3)CC2)N(C(=O)[C@@H](NC(=O)COCCCCC#Cc2ccc(C(=O)N[C@H]3C(C)(C)[C@H](Oc4ccc(C#N)c(Br)c4)C3(C)C)cc2)C(C)(C)C)C1` [Compound 8, (3R,5R)-1-((S)-2-(2-((6-(4-(((1R,3R)-3-(3-bromo-4-cyanophenoxy)-2,2,4,4-tetramethylcyclobutyl)carbamoyl)phenyl)hex-5-yn-1-yl)oxy)acetylamino)-3,3-dimethylbutyryl)-5-((1-(4-(4-methylthiazol-5-yl)phenyl)cyclopropyl)carbamoyl) pyrrolidin-3-yl acetate], the inhibition at 0.1 µM (VCaP cells, 16 h, ELISA) lay in the range of 25 to 49%. Turning to `Cc1ncsc1-c1ccc([C@H](C)NC(=O)[C@@H]2C[C@@H](O)CN2C(=O)[C@@H](NC(=O)COCCCCC#Cc2ccc3c(n2)CN([C@H]2C(C)(C)[C@H](Oc4ccc(C#N)c(Cl)c4)C2(C)C)C3=O)C(C)(C)C)cc1` [Compound 36, (2S,4R)-1-((S)-2-(2-((6-(6-((1r,3r)-3-(3-chloro-4-cyanophenoxy)-2,2,4,4-tetramethylcyclobutyl)-5-oxo-6,7-dihydro-5H-pyrrolo[3,4-b]pyridin-2-yl)hex-5-yn-1-yl)oxy)acetylamino)-3,3-dimethylbutyryl)-4-hydroxy-N-((S)-1-(4-(4-methylthiazol-5-yl)phenyl)ethyl)pyrrolidine-2-carboxamide], the inhibition at 0.1 µM (VCaP cells, 16 h, ELISA) fell in the range of 25 to 49%.

`N#Cc1ccc(O[C@H]2CC[C@H](NC(=O)c3ccc(N4CCC5(CC4)CN(CC4CCN(c6cc7c(cc6F)C(=O)N(C6CCC(=O)NC6=O)C7=O)CC4)C5)nn3)CC2)cc1Cl` (stereo partly drawn) [Compound 75]: the DC50 under setting [1] is less than 10 nM. Further, under setting [2], the Dmax was more than 80%. With `N#Cc1ccc(O[C@H]2CC[C@H](NC(=O)c3cnc(N4CCC5(CC4)CN(CC4CCN(c6cc7c(cc6F)C(=O)N(C6CCC(=O)NC6=O)C7=O)CC4)C5)cn3)CC2)cc1Cl` (stereo partly drawn) [Compound 76], under setting [1], the DC50 is less than 10 nM. In addition, under setting [2], the Dmax is more than 80%. With `N#Cc1ccc(O[C@H]2CC[C@H](NC(=O)c3ccc(N4CCC(N5CC6(CCN(c7cc8c(cc7F)C(=O)N(C7CCC(=O)NC7=O)C8=O)CC6)C5)CC4)nc3)CC2)cc1Cl` (stereo partly drawn) [Compound 77, N-((1r,4r)-4-(3-chloro-4-cyanophenoxy)cyclohexyl)-6-(4-(7-(2-(2,6-dioxopiperidin-3-yl)-6-fluoro-1,3-dioxoisoindolin-5-yl)-2,7-diazaspiro[3.5]nonan-2-yl)piperidin-1-yl)nicotinamide], the DC50 under setting [1] was less than 10 nM. For the same compound, under setting [2], the Dmax was more than 80%. In the same order, the values of `N#Cc1ccc(O[C@H]2CC[C@H](NC(=O)c3ccc(N4CCC(N5CC6(CCN(c7ccc8c(c7)C(=O)N(C7CCC(=O)NC7=O)C8=O)CC6)C5)CC4)nn3)CC2)cc1Cl` (stereo partly drawn) [Compound 78] are less than 10 nM and more than 80%.

Regarding `N#Cc1ccc(O[C@H]2CC[C@H](NC(=O)c3ccc(N4CCC(N5CC6(CCN(c7cc8c(cc7F)C(=O)N(C7CCC(=O)NC7=O)C8=O)CC6)C5)CC4)nn3)CC2)cc1C(F)(F)F` (stereo partly drawn) [Compound 79, N-((1r,4r)-4-(4-cyano-3-(trifluoromethyl)phenoxy)cyclohexyl)-6-(4-(7-(2-(2,6-dioxopiperidin-3-yl)-6-fluoro-1,3-dioxoisoindolin-5-yl)-2,7-diazaspiro[3.5]nonan-2-yl)piperidin-1-yl)pyridazine-3-formamide], the DC50 under setting [1] was in the range of 10 to 100 nM. Moreover, the Dmax under setting [2] is more than 80%.

Regarding `CC1(C)C(NC(=O)c2ccc(N3CCC(N4CC5(CCN(c6cc7c(cc6F)C(=O)N(C6CCC(=O)NC6=O)C7=O)CC5)C4)CC3)nn2)C(C)(C)C1Oc1ccc(C#N)c(Cl)c1` (stereo not drawn) [Compound 80, N-((1s,3s)-3-(3-chloro-4-cyanophenoxy)-2,2,4,4-tetramethylcyclobutyl)-6-(4-(7-(2-(2,6-dioxopiperidin-3-yl)-6-fluoro-1,3-dioxoisoindolin-5-yl)-2,7-diazaspiro [3.5]nonan-2-yl)piperidin-1-yl)pyridazine-3-formamide], the “Dmax (%)” value is on record as “+++ (key: ++++: >80%; +++: 80%-60%; ++: 60%-40%; +: <40%)” and the DC50 lay within 10 to 100 nM. Consider `N#Cc1ccc(O[C@H]2CC[C@H](NC(=O)c3ccc(N4CC5(CCN(C6CCN(c7cc8c(cc7F)C(=O)N(C7CCC(=O)NC7=O)C8=O)CC6)C5)C4)nn3)CC2)cc1Cl` (stereo partly drawn) [Compound 81, N-((1r,4r)-4-(3-chloro-4-cyanophenoxy)cyclohexyl)-6-(6-(1-(2-(2,6-dioxopiperidin-3-yl)-6-fluoro-1,3-dioxoisoindolin-5-yl)piperidine-4-yl)-2,6-diazaspiro[3.4]octan-2-yl)pyridazine-3-formamide], for which the Dmax was more than 80%. Further, the DC50 under setting [1] is less than 10 nM. Compound `N#Cc1ccc(O[C@H]2CC[C@H](NC(=O)c3cnc(N4CC5(CCN(C6CCN(c7cc8c(cc7F)C(=O)N(C7CCC(=O)NC7=O)C8=O)CC6)C5)C4)cn3)CC2)cc1Cl` (stereo partly drawn) [Compound 82, N-((1r,4r)-4-(3-chloro-4-cyanophenoxy)cyclohexyl)-5-(6-(1-(2-(2,6-dioxopiperidin-3-yl)-6-fluoro-1,3-dioxoisoindolin-5-yl)piperidine-4-yl)-2,6-diazaspiro [3.4]octane-2-yl)pyrazine-2-carboxamide] registered a Dmax of more than 80%. In addition, the DC50 under setting [1] is less than 10 nM.

The values are drawn from patent US20230091225A1, “Bifunctional chimeric heterocyclic compounds for targeted degradation of androgen receptors and use thereof” (HINOVA PHARMACEUTICALS INC., priority 2019, published 2023).
